This data set concerns CCRIS mutagenicity, Ames/micronucleus/aberration tests. The data set is described as follows: CCRIS mutagenicity studies.
Setting [1] is: End Point: IN VITRO CHROMOSOMAL ABERRATIONS, Test System: CHO CELLS, Metabolic Activation: NONE.
[2] abbreviates: End Point: IN VITRO CHROMOSOMAL ABERRATIONS, Test System: CHO CELLS, Metabolic Activation: RAT, LIVER, S-9, AROCLOR 1254.
[3] abbreviates: Test System: AMES SALMONELLA TYPHIMURIUM, Strain/Indicator: TA98, Metabolic Activation: NONE, Method: PREINCUBATION
Where [4] appears, read: Test System: AMES SALMONELLA TYPHIMURIUM, Strain/Indicator: TA98, Metabolic Activation: NONE, Method: STANDARD PLATE.
The mark [5] stands for this setting: Test System: AMES SALMONELLA TYPHIMURIUM, Strain/Indicator: TA100, Metabolic Activation: NONE, Method: STANDARD PLATE.
Setting [6] is: Test System: AMES SALMONELLA TYPHIMURIUM, Strain/Indicator: TA98, Metabolic Activation: RAT, LIVER, S-9, AROCLOR 1254, Method: PREINCUBATION
Where [7] appears, read: Test System: AMES SALMONELLA TYPHIMURIUM, Strain/Indicator: TA100, Metabolic Activation: NONE, Method: PREINCUBATION
Setting [8] is: Test System: AMES SALMONELLA TYPHIMURIUM, Strain/Indicator: TA100, Metabolic Activation: RAT, LIVER, S-9, AROCLOR 1254, Method: PREINCUBATION
Setting [9] is: Test System: AMES SALMONELLA TYPHIMURIUM, Strain/Indicator: TA1535, Metabolic Activation: NONE, Method: PREINCUBATION
Where [10] appears, read: Test System: AMES SALMONELLA TYPHIMURIUM, Strain/Indicator: TA1535, Metabolic Activation: RAT, LIVER, S-9, AROCLOR 1254, Method: PREINCUBATION
Setting [11] is: Test System: AMES SALMONELLA TYPHIMURIUM, Strain/Indicator: TA1537, Metabolic Activation: RAT, LIVER, S-9, AROCLOR 1254, Method: PREINCUBATION

The source made the active and inactive calls. No rule for the calls is given here.

For `O=C1C=CC[C@H](/C=C/c2ccccc2)O1`, the mutagenic call runs as follows: under setting [1], “active; positive (structural changes)”; under setting [2], “active; positive (structural changes)”.
Turning to `O=[N+]([O-])C(Cl)Br` (stereo not drawn), the mutagenic call runs as follows: (Test System: Ames Salmonella typhimurium, Strain/Indicator: RSJ100, Metabolic Activation: None, Method: Standard plate) “active; positive (weak)”; (Test System: Ames Salmonella typhimurium, Strain/Indicator: RSJ100, Metabolic Activation: Rat, Liver, S-9, Aroclor, Method: Standard plate) “inactive; negative”; (Test System: Ames Salmonella typhimurium, Strain/Indicator: TA98, Metabolic Activation: None, Method: Standard plate) “active; positive (weak)”; (Test System: Ames Salmonella typhimurium, Strain/Indicator: TA98, Metabolic Activation: Rat, Liver, S-9, Aroclor, Method: Standard plate) “inactive; negative”; (Test System: Ames Salmonella typhimurium, Strain/Indicator: TA100, Metabolic Activation: None, Method: Standard plate) “inactive; negative”; (Test System: Ames Salmonella typhimurium, Strain/Indicator: TA100, Metabolic Activation: Rat, Liver, S-9, Aroclor, Method: Standard plate) “active; positive”. For the same compound, the mutagenic call (Test System: Ames Salmonella typhimurium, Strain/Indicator: TA104, Metabolic Activation: None, Method: Standard plate) is “inactive; negative”; the mutagenic call (Test System: Ames Salmonella typhimurium, Strain/Indicator: TA104, Metabolic Activation: Rat, Liver, S-9, Aroclor, Method: Standard plate) is “inactive; negative”; the mutagenic call (Test System: Ames Salmonella typhimurium, Strain/Indicator: TPT100, Metabolic Activation: None, Method: Standard plate) was “inactive; negative”.
For the compound `c1ccc2c(c1)-c1cc3ccccc3cc1[C@H]1O[C@@H]21`, the mutagenic call by setting is: under setting [3], “active; positive”; under setting [4], “active; positive”; under setting [5], “active; positive”; (Test System: CHINESE HAMSTER V-79, Strain/Indicator: V-79/8-AZAGUANINE, Metabolic Activation: NONE, Method: STANDARD PLATE) “active; positive”; (Test System: UDS HUMAN FIBROBLASTS, Strain/Indicator: THY INCORP (NON-S-PHASE), Metabolic Activation: NONE, Method: AUTORADIOGRAPHY) “active; positive”.
Regarding `NS(=O)(=O)c1cc2c(cc1Cl)NCNS2(=O)=O`, the mutagenic call was “inactive; negative” (End Point: IN VITRO CHROMOSOMAL ABERRATIONS, Test System: CHINESE HAMSTER OVARY CELLS, Metabolic Activation: NONE); “inactive; negative” (End Point: IN VITRO CHROMOSOMAL ABERRATIONS, Test System: CHINESE HAMSTER OVARY CELLS, Metabolic Activation: RAT, LIVER, S-9, AROCLOR 1254); “inactive; negative” under setting [1]; “inactive; negative” under setting [2]; “inactive; negative” (Test System: AMES SALMONELLA TYPHIMURIUM, Strain/Indicator: TA98, Metabolic Activation: HAMSTER, LIVER, S-9, AROCLOR 1254, Method: PREINCUBATION); “inactive; negative” under setting [6]. For the same compound, the mutagenic call (Test System: AMES SALMONELLA TYPHIMURIUM, Strain/Indicator: TA100, Metabolic Activation: HAMSTER, LIVER, S-9, AROCLOR 1254, Method: PREINCUBATION) is “inactive; negative”; the mutagenic call under setting [7] is “inactive; negative”; the mutagenic call under setting [8] is “inactive; negative”; the mutagenic call (Test System: AMES SALMONELLA TYPHIMURIUM, Strain/Indicator: TA1535, Metabolic Activation: HAMSTER, LIVER, S-9, AROCLOR 1254, Method: PREINCUBATION) is “inactive; negative”; the mutagenic call under setting [9] was “inactive; negative”; the mutagenic call under setting [10] is “inactive; negative”. Also, the mutagenic call was “inactive; negative” (Test System: AMES SALMONELLA TYPHIMURIUM, Strain/Indicator: TA1537, Metabolic Activation: HAMSTER, LIVER, S-9, AROCLOR 1254, Method: PREINCUBATION); “inactive; negative” under setting [11]; “active; positive” (Test System: MOUSE LYMPHOMA, Strain/Indicator: L5178Y (TK+/TK-), Metabolic Activation: NONE, Method: SUSPENSION/PLATE).
Consider `CCCCN=[N+]=[N-]`, for which the mutagenic call reads like this: (Test System: Ames Salmonella typhimurium, Strain/Indicator: TA100, Metabolic Activation: None, Method: Preincubation) “inactive; negative”; (Test System: Ames Salmonella typhimurium, Strain/Indicator: TA100, Metabolic Activation: Rat, Liver, S-9, Aroclor 1254, Method: Preincubation) “active; positive”.
Turning to `Oc1cccc2sc3ccccc3c12`, for the setting “Test System: CHINESE HAMSTER OVARY, Strain/Indicator: CHO-K1-BH4 (HGPRT)/6-THIOGUANINE, Metabolic Activation: RAT, LIVER, S-9, AROCLOR (4%)”, the mutagenic call is “active; positive”.
As to `C[C@]12CC[C@@H]3c4ccc(O)cc4CC[C@H]3[C@@]13CC[C@]2(O)[C@H](O)C3`, the mutagenic call (End Point: IN VITRO CHROMOSOMAL ABERRATIONS, Test System: HUMAN PERIPHERAL LYMPHOCYTES, Metabolic Activation: NONE) is “inactive; negative”; the mutagenic call (End Point: IN VITRO CHROMOSOMAL ABERRATIONS, Test System: HUMAN PERIPHERAL LYMPHOCYTES, Metabolic Activation: RAT, LIVER, S-9, AROCLOR 1254) is “inactive; negative”; the mutagenic call under setting [3] is “inactive; negative”; the mutagenic call under setting [4] is “inactive; negative”; the mutagenic call under setting [6] was “inactive; negative”; the mutagenic call (Test System: AMES SALMONELLA TYPHIMURIUM, Strain/Indicator: TA98, Metabolic Activation: RAT, LIVER, S-9, AROCLOR 1254, Method: STANDARD PLATE) was “inactive; negative”. In addition, the mutagenic call under setting [7] is “inactive; negative”; the mutagenic call under setting [5] is “inactive; negative”; the mutagenic call under setting [8] is “inactive; negative”; the mutagenic call (Test System: AMES SALMONELLA TYPHIMURIUM, Strain/Indicator: TA100, Metabolic Activation: RAT, LIVER, S-9, AROCLOR 1254, Method: STANDARD PLATE) was “inactive; negative”; the mutagenic call under setting [9] is “inactive; negative”; the mutagenic call (Test System: AMES SALMONELLA TYPHIMURIUM, Strain/Indicator: TA1535, Metabolic Activation: NONE, Method: STANDARD PLATE) was “inactive; negative”. For the same compound, the mutagenic call was “inactive; negative” under setting [10]; “inactive; negative” (Test System: AMES SALMONELLA TYPHIMURIUM, Strain/Indicator: TA1535, Metabolic Activation: RAT, LIVER, S-9, AROCLOR 1254, Method: STANDARD PLATE); “inactive; negative” (Test System: AMES SALMONELLA TYPHIMURIUM, Strain/Indicator: TA1537, Metabolic Activation: NONE, Method: PREINCUBATION); “inactive; negative” (Test System: AMES SALMONELLA TYPHIMURIUM, Strain/Indicator: TA1537, Metabolic Activation: NONE, Method: STANDARD PLATE); “inactive; negative” under setting [11]; “inactive; negative” (Test System: AMES SALMONELLA TYPHIMURIUM, Strain/Indicator: TA1537, Metabolic Activation: RAT, LIVER, S-9, AROCLOR 1254, Method: STANDARD PLATE). Also, the mutagenic call by setting is: (Test System: AMES SALMONELLA TYPHIMURIUM, Strain/Indicator: TA1538, Metabolic Activation: NONE, Method: PREINCUBATION) “inactive; negative”; (Test System: AMES SALMONELLA TYPHIMURIUM, Strain/Indicator: TA1538, Metabolic Activation: NONE, Method: STANDARD PLATE) “inactive; negative”; (Test System: AMES SALMONELLA TYPHIMURIUM, Strain/Indicator: TA1538, Metabolic Activation: RAT, LIVER, S-9, AROCLOR 1254, Method: PREINCUBATION) “inactive; negative”; (Test System: AMES SALMONELLA TYPHIMURIUM, Strain/Indicator: TA1538, Metabolic Activation: RAT, LIVER, S-9, AROCLOR 1254, Method: STANDARD PLATE) “inactive; negative”; (Test System: CHINESE HAMSTER V-79, Strain/Indicator: V-79 (HGPRT)/6-THIOGUANINE, Metabolic Activation: NONE) “inactive; negative”; (Test System: CHINESE HAMSTER V-79, Strain/Indicator: V-79 (HGPRT)/6-THIOGUANINE, Metabolic Activation: RAT, LIVER, S-9, AROCLOR 1254) “inactive; negative”.

The record behind these values is PubChem BioAssay AID1259407 (Chemical Carcinogenesis Research Information System (CCRIS), 2018).
